# Experimental data: PMC6264117, “Label-Free Time-Gated Luminescent Detection Method for the Nucleotides with Varying Phosphate Content” (Sensors (Basel, Switzerland), 2018)
# Biological target: T1, K-Ras (Homo sapiens, UniProt P01116)
# T1 construct: gene KRAS; res; 2-188; with SOS^cat (res. 564-1049); p120GAP (res. 714-1047) in the cycling assay
# Assay: Label-free Tb(III) luminescence GTPase cycling assay (Probe […]); confirmed by QRET and by SOS^cat nucleotide exchange assays (IC50 […])
# Format: biochemical
# T1 sequence (Q07889 564-1049): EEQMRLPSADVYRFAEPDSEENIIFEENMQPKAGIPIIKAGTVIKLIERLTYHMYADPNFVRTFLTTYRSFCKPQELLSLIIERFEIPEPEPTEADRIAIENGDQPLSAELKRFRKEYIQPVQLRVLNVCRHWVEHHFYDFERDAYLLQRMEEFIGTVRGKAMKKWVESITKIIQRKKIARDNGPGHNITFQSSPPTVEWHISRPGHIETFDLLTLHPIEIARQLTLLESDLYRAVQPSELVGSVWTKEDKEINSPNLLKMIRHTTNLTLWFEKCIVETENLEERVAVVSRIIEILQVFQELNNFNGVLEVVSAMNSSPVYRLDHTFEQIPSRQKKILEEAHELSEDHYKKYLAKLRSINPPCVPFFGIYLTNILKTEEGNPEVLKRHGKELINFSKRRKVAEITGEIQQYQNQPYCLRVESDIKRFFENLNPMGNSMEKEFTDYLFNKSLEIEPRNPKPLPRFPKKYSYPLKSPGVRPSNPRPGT
# T1 sequence (P20936 714-1047, further chain): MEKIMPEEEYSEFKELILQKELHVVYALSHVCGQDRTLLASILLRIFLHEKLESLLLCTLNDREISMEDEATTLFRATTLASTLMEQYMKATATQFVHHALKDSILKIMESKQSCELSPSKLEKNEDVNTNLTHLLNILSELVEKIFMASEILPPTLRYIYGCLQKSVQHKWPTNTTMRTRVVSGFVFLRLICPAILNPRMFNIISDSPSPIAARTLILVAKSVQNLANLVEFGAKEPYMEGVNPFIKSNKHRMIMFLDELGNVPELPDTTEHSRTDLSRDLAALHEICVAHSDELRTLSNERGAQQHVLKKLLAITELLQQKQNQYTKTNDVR
# T1 sequence (P01116 2-188): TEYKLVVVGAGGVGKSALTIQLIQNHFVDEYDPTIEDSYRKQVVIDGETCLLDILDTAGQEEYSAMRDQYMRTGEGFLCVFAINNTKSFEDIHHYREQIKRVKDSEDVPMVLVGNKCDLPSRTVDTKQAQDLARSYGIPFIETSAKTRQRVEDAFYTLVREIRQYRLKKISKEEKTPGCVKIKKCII
smiles,measurement,value
"Cc1[nH]c2cc(Cl)cc(Cl)c2c1CCN [DCAI, 2-(4,6-dichloro-2-methyl-1h-indol-3-yl)ethanamine]",IC50,158 ± 13 µM
